Results as given in EP3262942A1, “SELENODIARYLS FOR USE AS MICROBICIDE OR AS MEDICINE” (Evonik Degussa GmbH, priority 2016, dated 2018).

Tests used:
Candida albicans = assay: Growth test in microtiter plates, HA medium, 24 h, visual evaluation; type: cell-based; design: key: +: kein Wachstum im Vergleich zur Wachstumskontrolle; -: Wachstum wie Wachstumskontrolle
Mucor miehei = assay: as above; type: cell-based; design: key to Aktivität gegenüber M. miehei: +: kein Wachstum im Vergleich zur Wachstumskontrolle; -: Wachstum wie Wachstumskontrolle
Penicillium notatum = assay: as above; type: cell-based; design: key: +: kein Wachstum im Vergleich zur Wachstumskontrolle; -: Wachstum wie Wachstumskontrolle
Paecilomyces variotii = assay: as above; type: cell-based; design: key: +: kein Wachstum im Vergleich zur Wachstumskontrolle; -: Wachstum wie Wachstumskontrolle
M. grisea H2O = assay: microbe, parasite or virus in culture; type: cell-based, Magnaporthe grisea
Botrytis cinerea = assay: microbe, parasite or virus in culture; type: cell-based
P. infestans = assay: microbe, parasite or virus in culture; type: cell-based, Phytophthora infestans
M. grisea CM = assay: microbe, parasite or virus in culture; type: cell-based, Magnaporthe grisea
Lepidium sativum = assay: Crop plant growth test, seeds on filter discs, 4 days, visual evaluation; type: in vivo
Description: (§1) Testsubstanzen und Kontrollen werden auf Filterrondellen in Mikrotiterplatten (48 well) vorgelegt und das verwendete Lösungsmittel (DMSO) über Lyophilisation entfernt. Anschließend werden ca. 12 Samen pro Vertiefung (Setaria italical Lepidium sativum) zugeben, mit 200 µl sterilem Leitungswasser pro Vertiefung versetzt, mit einem Deckel versehen und in einer feuchten Kammer für 4 Tage im Pflanzenbrutschrank inkubiert (16h-Licht-8h-Dunkel-Rhythmus). Die Auswertung des Tests erfolgt optisch (+: mind. 75 % Wachstumshemmung im Vergleich zur Kontrolle, -: weniger als 75 % Wachstumshemmung im Vergleich zur Kontrolle.

Setaria italica = assay: as above; type: in vivo
Description: as §1

[1] = Pyricularia grisea, H2O, 24 h, read-out: Aktivität gegenüber M. grisea H2O
[2] = Phytophthora infestans, 24 h, read-out: Aktivität gegenüber P. infestans
[3] = Pyricularia grisea, 24 h, read-out: Aktivität gegenüber M. grisea CM

Row | SMILES | Aktivität gegenüber C. albicans (Candida albicans; 10µg/mL) | Aktivität gegenüber C. albicans (Candida albicans; 50µg/mL) | Aktivität gegenüber M. miehei (Mucor miehei; 10µg/mL) | Aktivität gegenüber M. miehei (Mucor miehei; 50µg/mL) | Aktivität gegenüber P. notatum (Penicillium notatum; 10µg/mL) | Aktivität gegenüber P. notatum (Penicillium notatum; 50µg/mL) | Aktivität gegenüber P. variotii (Paecilomyces variotii; 10µg/mL) | Aktivität gegenüber P. variotii (Paecilomyces variotii; 50µg/mL) | Aktivität gegenüber M. grisea H2O (M. grisea H2O; 5µg/mL) | Aktivität gegenüber M. grisea H2O (M. grisea H2O; 10µg/mL) | Aktivität gegenüber M. grisea H2O (M. grisea H2O; 25µg/mL) | Aktivität gegenüber M. grisea H2O (M. grisea H2O; 50µg/mL) | Aktivität gegenüber B. cinerea (Botrytis cinerea; 5µg/mL) | Wirksamkeit gegenüber P. infestans (P. infestans) | Aktivität gegenüber Nutzpflanzen: L. sativum (Lepidium sativum; 10µg/R) | Aktivität gegenüber Nutzpflanzen: L. sativum (Lepidium sativum; 20µg/R) | Aktivität gegenüber Nutzpflanzen: L. sativum (Lepidium sativum; 50µg/R) | Aktivität gegenüber Nutzpflanzen: S. italica (Setaria italica; 10µg/R) | Aktivität gegenüber Nutzpflanzen: S. italica (Setaria italica; 20µg/R) | Aktivität gegenüber Nutzpflanzen: S. italica (Setaria italica; 50µg/R) | other results
1 | COc1cc(C)c([Se]c2c(C)cc(OC)c(OC)c2OC)c(OC)c1OC [Verbindung 28, Bis(6-methyl-2,3,4-trimethoxyphenyl)selen] | - | - | - | - | - | - | - | - | +++ (mehr als 75 % der Sporen nicht gekeimt) | +++ (mehr als 75 % der Sporen nicht gekeimt) | +++ (mehr als 75 % der Sporen nicht gekeimt) | +++ (mehr als 75 % der Sporen nicht gekeimt) | - (key: +++: mehr als 75 % der Sporen nicht gekeimt; ++: zwischen 50 und 75 % der Sporen nicht gekeimt; +: zwischen 25 und 50 % der Sporen nicht gekeimt; -: zwischen 0 und 25 % der Sporen nicht gekeimt) | keine Wirkung | - (weniger als 75 % Wachstumshemmung im Vergleich zur Kontrolle) | - (weniger als 75 % Wachstumshemmung im Vergleich zur Kontrolle) | - (weniger als 75 % Wachstumshemmung im Vergleich zur Kontrolle) | - (weniger als 75 % Wachstumshemmung im Vergleich zur Kontrolle) | - (weniger als 75 % Wachstumshemmung im Vergleich zur Kontrolle) | + (mind. 75 % Wachstumshemmung im Vergleich zur Kontrolle) | Aktivität gegenüber B. cinerea (Botrytis cinerea; 10µg/mL): - (key: +++: mehr als 75 % der Sporen nicht gekeimt; ++: zwischen 50 und 75 % der Sporen nicht gekeimt; +: zwischen 25 und 50 % der Sporen nicht gekeimt; -: zwischen 0 und 25 % der Sporen nicht gekeimt); Aktivität gegenüber B. cinerea (Botrytis cinerea; 25µg/mL): - (key: +++: mehr als 75 % der Sporen nicht gekeimt; ++: zwischen 50 und 75 % der Sporen nicht gekeimt; +: zwischen 25 und 50 % der Sporen nicht gekeimt; -: zwischen 0 und 25 % der Sporen nicht gekeimt); Aktivität gegenüber B. cinerea (Botrytis cinerea; 50µg/mL): - (key: +++: mehr als 75 % der Sporen nicht gekeimt; ++: zwischen 50 und 75 % der Sporen nicht gekeimt; +: zwischen 25 und 50 % der Sporen nicht gekeimt; -: zwischen 0 und 25 % der Sporen nicht gekeimt); Aktivität gegenüber P. infestans (P. infestans; 5µg/mL): - (zwischen 0 und 25 % der Sporen nicht gekeimt); Aktivität gegenüber P. infestans (P. infestans; 10µg/mL): - (zwischen 0 und 25 % der Sporen nicht gekeimt); Aktivität gegenüber P. infestans (P. infestans; 25µg/mL): - (zwischen 0 und 25 % der Sporen nicht gekeimt); Aktivität gegenüber P. infestans (P. infestans; 50µg/mL): - (zwischen 0 und 25 % der Sporen nicht gekeimt); Aktivität gegenüber M. grisea CM (M. grisea CM; 5µg/mL): +++ (mehr als 75 % der Sporen nicht gekeimt); Aktivität gegenüber M. grisea CM (M. grisea CM; 10µg/mL): +++ (mehr als 75 % der Sporen nicht gekeimt); Aktivität gegenüber M. grisea CM (M. grisea CM; 25µg/mL): +++ (mehr als 75 % der Sporen nicht gekeimt); Aktivität gegenüber M. grisea CM (M. grisea CM; 50µg/mL): +++ (mehr als 75 % der Sporen nicht gekeimt)
2 | Cc1cc(Br)c(O)c([Se]c2cc(C)cc(Br)c2O)c1 [Verbindung 23, Bis(3-brom-2-hydroxy-5-methylphenyl)selen] | - | - | - | - | - | - | - | - |  |  |  |  |  | keine Wirkung | - (weniger als 75 % Wachstumshemmung im Vergleich zur Kontrolle) | - (weniger als 75 % Wachstumshemmung im Vergleich zur Kontrolle) | - (weniger als 75 % Wachstumshemmung im Vergleich zur Kontrolle) | - (weniger als 75 % Wachstumshemmung im Vergleich zur Kontrolle) | - (weniger als 75 % Wachstumshemmung im Vergleich zur Kontrolle) | - (weniger als 75 % Wachstumshemmung im Vergleich zur Kontrolle) | inhibition of growth at 5 µg/mL (M. grisea H2O; [1]): 0 to 25%; inhibition of growth at 10 µg/mL (M. grisea H2O; [1]): 25 to 50%; inhibition of growth at 25 µg/mL (M. grisea H2O; [1]): > 75%; inhibition of growth at 50 µg/mL (M. grisea H2O; [1]): > 75%; inhibition of growth at 5 µg/mL (Botrytis cinerea; Botrytis cinerea, 24 h, 5µg/mL, read-out: Aktivität gegenüber B. cinerea): 0 to 25%; inhibition of growth at 10 µg/mL (Botrytis cinerea; Botrytis cinerea, 24 h, 10µg/mL, read-out: Aktivität gegenüber B. cinerea): 0 to 25%; inhibition of growth at 25 µg/mL (Botrytis cinerea; Botrytis cinerea, 24 h, 25µg/mL, read-out: Aktivität gegenüber B. cinerea): 0 to 25%; inhibition of growth at 50 µg/mL (Botrytis cinerea; Botrytis cinerea, 24 h, 50µg/mL, read-out: Aktivität gegenüber B. cinerea): 0 to 25%; inhibition of growth at 5 µg/mL (P. infestans; [2]): 0 to 25%; inhibition of growth at 10 µg/mL (P. infestans; [2]): 0 to 25%; inhibition of growth at 25 µg/mL (P. infestans; [2]): 0 to 25%; inhibition of growth at 50 µg/mL (P. infestans; [2]): 0 to 25%; inhibition of growth at 5 µg/mL (M. grisea CM; [3]): > 75%; inhibition of growth at 10 µg/mL (M. grisea CM; [3]): > 75%; inhibition of growth at 25 µg/mL (M. grisea CM; [3]): > 75%; inhibition of growth at 50 µg/mL (M. grisea CM; [3]): > 75%
3 | COc1cc(C)c([Se]c2cc(OC)c(OC)cc2C)cc1OC [Verbindung 27, Bis(3,4-dimethoxy-6-methylphenyl)selen] | - | - | - | - | - | - | - | - | - (zwischen 0 und 25 % der Sporen nicht gekeimt) | - (zwischen 0 und 25 % der Sporen nicht gekeimt) | - (zwischen 0 und 25 % der Sporen nicht gekeimt) | + (zwischen 25 und 50 % der Sporen nicht gekeimt) | - (key: +++: mehr als 75 % der Sporen nicht gekeimt; ++: zwischen 50 und 75 % der Sporen nicht gekeimt; +: zwischen 25 und 50 % der Sporen nicht gekeimt; -: zwischen 0 und 25 % der Sporen nicht gekeimt) | keine Wirkung | - (weniger als 75 % Wachstumshemmung im Vergleich zur Kontrolle) | - (weniger als 75 % Wachstumshemmung im Vergleich zur Kontrolle) | - (weniger als 75 % Wachstumshemmung im Vergleich zur Kontrolle) | + (mind. 75 % Wachstumshemmung im Vergleich zur Kontrolle) | - (weniger als 75 % Wachstumshemmung im Vergleich zur Kontrolle) | + (mind. 75 % Wachstumshemmung im Vergleich zur Kontrolle) | Aktivität gegenüber B. cinerea (Botrytis cinerea; 10µg/mL): - (key: +++: mehr als 75 % der Sporen nicht gekeimt; ++: zwischen 50 und 75 % der Sporen nicht gekeimt; +: zwischen 25 und 50 % der Sporen nicht gekeimt; -: zwischen 0 und 25 % der Sporen nicht gekeimt); Aktivität gegenüber B. cinerea (Botrytis cinerea; 25µg/mL): - (key: +++: mehr als 75 % der Sporen nicht gekeimt; ++: zwischen 50 und 75 % der Sporen nicht gekeimt; +: zwischen 25 und 50 % der Sporen nicht gekeimt; -: zwischen 0 und 25 % der Sporen nicht gekeimt); Aktivität gegenüber B. cinerea (Botrytis cinerea; 50µg/mL): - (key: +++: mehr als 75 % der Sporen nicht gekeimt; ++: zwischen 50 und 75 % der Sporen nicht gekeimt; +: zwischen 25 und 50 % der Sporen nicht gekeimt; -: zwischen 0 und 25 % der Sporen nicht gekeimt); Aktivität gegenüber P. infestans (P. infestans; 5µg/mL): - (zwischen 0 und 25 % der Sporen nicht gekeimt); Aktivität gegenüber P. infestans (P. infestans; 10µg/mL): - (zwischen 0 und 25 % der Sporen nicht gekeimt); Aktivität gegenüber P. infestans (P. infestans; 25µg/mL): - (zwischen 0 und 25 % der Sporen nicht gekeimt); Aktivität gegenüber P. infestans (P. infestans; 50µg/mL): - (zwischen 0 und 25 % der Sporen nicht gekeimt); Aktivität gegenüber M. grisea CM (M. grisea CM; 5µg/mL): - (zwischen 0 und 25 % der Sporen nicht gekeimt); Aktivität gegenüber M. grisea CM (M. grisea CM; 10µg/mL): - (zwischen 0 und 25 % der Sporen nicht gekeimt); Aktivität gegenüber M. grisea CM (M. grisea CM; 25µg/mL): + (zwischen 25 und 50 % der Sporen nicht gekeimt); Aktivität gegenüber M. grisea CM (M. grisea CM; 50µg/mL): + (zwischen 25 und 50 % der Sporen nicht gekeimt)
